Measurements published in patent US20180221295A1, “PHARMACEUTICAL COMPOSITION COMPRISING ELECTROHYDRODYNAMICALLY OBTAINED FIBRES, THE COMPOSITION HAVING IMPROVED RESIDENCE TIME ON THE APPLICATION SITE” (DERMTREAT APS, priority 2015, published 2018).

Legend:
[1] = in vivo; cited from earlier work
[2] = in vivo; cited from earlier work; remark: listed apart in the source
[3] = In vitro drug release testing of fibres in Green's cell culture medium (HPLC); type: physicochemical; conditions: 1.2x1.2 cm samples in 5 mL Green's cell culture medium, 37° C., 30, 60 and 120 minutes
Protocol: Compositions: Same as in example 4.
Composition of Green's cell culture medium - Dulbecco's Modified Eagle's Medium: Ham's F12 medium in a 3:1 (v/v) ratio supplemented with 10% (v/v) FCS • 0.1 μM cholera toxin • 10 ng/ml of epidermal growth factor (EGF) • 0.4 μg/ml hydrocortisone • 0.18 mM adenine • 5 μg/ml insulin • 5 μg/ml transferrin • 2 mM glutamine • 0.2 μM triiodothyronine • 0.625 μg/ml amphotericin B • 100 IU/ml penicillin • 100 μg/ml streptomycin
Method of Analysis: • Samples of dimensions 1.2×1.2 cm were cut from each fibre composition and were placed in vials containing 5 mL of Green's cell culture medium. • All vials were incubated at 37° C. for 30, 60 and 120 minutes. • At those time points, 1.5 mL of cell culture media were removed from each vial • The concentration of clobetasol propionate released from the fibres was measured using high-performance liquid chromatography (HPLC).

SMILES: C[C@]12CCC(=O)C=C1CC[C@@H]1[C@@H]2[C@@H](O)C[C@@]2(C)[C@H]1CC[C@]2(O)C(=O)CO [Hydrocortisone]
- Absorption from the gut [1]: no significant absorption from the gut

SMILES: C/C=C(/C)C(=O)O[C@H]1C(C)=C[C@]23C(=O)[C@@H](C=C(CO)[C@@H](O)[C@]12O)[C@H]1[C@@H](C[C@H]3C)C1(C)C [Ingenol mebutate]
- Absorption through the skin [2]: practically not absorbed through the skin

SMILES: CCC(=O)O[C@]1(C(=O)CCl)[C@@H](C)C[C@H]2[C@@H]3CCC4=CC(=O)C=C[C@]4(C)[C@@]3(F)[C@@H](O)C[C@@]21C [clobetasol propionate]
- Release of clobetasol propionate from electrospun fibres [3]: released after immersion in cell culture media
